Calls of active or inactive are those of the source. The calls are words filed in the database; no cut-off is given here.
Columns and labels:
[1] = tested on: Rattus norvegicus; test: Antiinflammatory activity against carrageenan-induced paw edema in Wistar rat at 1.3 mg/kg, po; type: functional, organism-based; design: dose 1.3 mg/kg
[2] = tested on: Rattus norvegicus; test: Antiinflammatory activity against carrageenan-induced paw edema in Wistar rat at 1.7 mg/kg, po; type: functional, organism-based; design: dose 1.7 mg/kg
[3] = tested on: Rattus norvegicus; test: Antiinflammatory activity against carrageenan-induced paw edema in Wistar rat at 5 mg/kg, po; type: functional
[4] = tested on: Rattus norvegicus; test: Antiinflammatory activity against carrageenan-induced paw edema in Wistar rat at 1.08 mg/kg, po; type: functional, organism-based; design: dose 1.08 mg/kg
[5] = tested on: Rattus norvegicus; test: Antiinflammatory activity against carrageenan-induced paw edema in Wistar rat at 1.8 mg/kg, po; type: functional, organism-based; design: dose 1.8 mg/kg

## C[C@@]12CCC[C@H]1C1=C(CC2)[C@@]2(C)CC[C@H](O[C@@H]3O[C@H](CO[C@@H]4O[C@H](CO)[C@@H](O)[C@H](O)[C@H]4O)[C@@H](O)[C@H](O)[C@H]3O)CC2CC1 (stereo not given in full)
[1]
  Activity: inactive

## CC(=O)OC[C@H]1O[C@@H](O[C@H]2CC[C@]3(C)C4=C(CCC3C2)C2=CCC[C@@]2(C2[C@H]3O[C@]5(C)OC[C@H](C)C5(O)[C@H]3O[C@@H]2O)CC4)[C@H](O[C@@H]2O[C@H](CO)[C@H](O)[C@H](O)[C@H]2O)[C@@H](O)[C@@H]1O (stereo not given in full)
[2]
  Activity: inactive

## COc1ccc2c(c1)c(CC(=O)O)c(C)n2C(=O)c1ccc(Cl)cc1 [INDOMETHACIN]
[3]
  inhibition in vivo at 5 mg/kg: 85%

## C[C@H]1CO[C@@]2(C)O[C@@H]3C([C@@]45CCC=C4C4=C(CC5)[C@@]5(C)CC[C@H](O[C@@H]6O[C@H](CO)[C@@H](O)[C@H](O)[C@H]6O[C@@H]6O[C@H](CO)[C@H](O)[C@H](O)[C@H]6O)CC5CC4)[C@@H](O)O[C@@H]3C12O (stereo not given in full)
[4]
  Activity: inactive

## C[C@@]12CCC[C@H]1C1=C(CC2)[C@@]2(C)CC[C@H](O[C@@H]3O[C@H](CO[C@@H]4O[C@H](CO)[C@@H](O)[C@H](O)[C@H]4O)[C@@H](O)[C@H](O)[C@H]3O[C@@H]3O[C@H](CO)[C@H](O)[C@H](O)[C@H]3O)CC2CC1 (stereo not given in full)
[5]
  Activity: inactive
